The values below come from patent US20100160304A1, “AROMATIC SULFONE COMPOUND AS ALDOSTERONE RECEPTOR MODULATOR” (Dainippon Sumitomo Pharma Co., Ltd, priority 2005, published 2010).

For one test, the target named is T1, aldosterone receptor MR (Rattus norvegicus, UniProt P22199).
T1 construct: the resultant supernatant was being a soluble fraction of the kidney; from tissue; host or cells: kidney of adrenalectomized rat, 105,000 G supernatant (soluble fraction)
T1 sequence (P22199 1-981): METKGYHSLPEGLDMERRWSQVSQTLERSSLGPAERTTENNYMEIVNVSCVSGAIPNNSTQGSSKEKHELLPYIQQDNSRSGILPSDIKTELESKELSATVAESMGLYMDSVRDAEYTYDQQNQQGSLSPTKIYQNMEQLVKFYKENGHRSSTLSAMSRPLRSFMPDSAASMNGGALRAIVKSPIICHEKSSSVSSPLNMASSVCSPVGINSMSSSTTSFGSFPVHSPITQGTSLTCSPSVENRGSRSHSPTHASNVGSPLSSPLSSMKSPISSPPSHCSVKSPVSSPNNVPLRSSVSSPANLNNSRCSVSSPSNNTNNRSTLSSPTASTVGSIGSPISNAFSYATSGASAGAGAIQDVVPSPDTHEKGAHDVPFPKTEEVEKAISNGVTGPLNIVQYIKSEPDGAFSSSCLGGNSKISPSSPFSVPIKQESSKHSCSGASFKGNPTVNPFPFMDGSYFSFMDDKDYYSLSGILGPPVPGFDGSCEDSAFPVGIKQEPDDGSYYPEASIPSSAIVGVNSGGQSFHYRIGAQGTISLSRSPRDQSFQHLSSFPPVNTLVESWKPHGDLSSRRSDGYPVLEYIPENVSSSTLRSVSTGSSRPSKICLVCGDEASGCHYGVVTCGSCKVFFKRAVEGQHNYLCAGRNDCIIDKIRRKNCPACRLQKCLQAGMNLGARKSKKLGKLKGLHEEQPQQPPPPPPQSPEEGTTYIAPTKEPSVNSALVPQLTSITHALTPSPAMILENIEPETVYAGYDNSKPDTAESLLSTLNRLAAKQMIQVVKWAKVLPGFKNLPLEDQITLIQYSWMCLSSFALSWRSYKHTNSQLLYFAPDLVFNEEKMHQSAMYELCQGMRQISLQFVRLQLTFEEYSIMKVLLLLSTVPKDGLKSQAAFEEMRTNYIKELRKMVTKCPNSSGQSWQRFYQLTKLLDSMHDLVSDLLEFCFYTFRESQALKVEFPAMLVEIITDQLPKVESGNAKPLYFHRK
The experiment in a line: Aldosterone receptor binding assay ([3H]aldosterone, soluble fraction of rat kidney). Particulars: [3H]aldosterone 2 nM, 2 μM RU-486, 4° C. about 18 hours. The procedure:
Flank incision (both sides) was subjected to a rat to adrenalectomize. After suturing the rat's incised parts, the rat was again returned to a breeding cage and bred for a duration of 3 to 5 days to collect a kidney from the rat; the collected kidney was homogenized with 0.1 M Tris-HCl, 0.25M sucrose, 0.1M Na2MoO4, 2 mM DTT buffer solution (pH 7.4), the resultant solution was subjected to centrifugal separation at 105,000 G for 30 minutes, and the resultant supernatant was being a soluble fraction of the kidney.
Thereafter, the reactant solution was added with 50 μL of 5% dextran coated charcoal and mixed, and then centrifugated at 3,000 G for 5 minutes. Subsequently, 100 μL of the supernatant was collected and mixed with 3.5 mL of liquid scintillator ACS-II (Amersham) to measure a radioactivity with a liquid scintillation counter (manufactured by Packard, Tri Carb 2700TR). A non-specific binding was determined by adding 2 μM of aldosterone to the reactant solution.
Binding inhibiting rate (%)=10−[(B−N)/(B0−N)]×100
B: Binding amount of the marker ligand in the co-presence of the tested substance and marker ligand,
B0: Binding amount of the marker ligand in the absence of the tested substance, and
N: Binding amount of the marker ligand in the presence of excess aldosterone (2 μM).

Test [1] relates to decrease of Na/K ratio in urine induced with aldosterone. The experiment in a line: Antagonistic action (in vivo antagonist activity) against decrease of Na/K ratio in urine induced with aldosterone, adrenalectomized rat. The conditions noted are these: oral 10 and 30 mg/kg, 30 minutes before subcutaneous aldosterone, urine collection 4 hours (FIG. 1).
Protocol: After anesthetizing a rat by administering 50 mg/kg of sodium pentobarbital in its abdominal cavity and disinfecting its skin with the Isodine diluted solution, the rat was incised. After adrenalectomy and confirming the hemostasis, the muscular layer and skin were sutured in this order and then the sutured part was disinfected with the Isodine diluted solution. After breeding 3 days or more, a rat showing good progress was subjected to the following test.
It was fasted from the day preceding an examination, put into a metabolic cage at the day of the examination, and then subjected to a urine collection for 4 hours. When a substance to be tested was administered orally, it was administered in an amount of 5 ml/kg with 0.5% methylcellulose as a solvent. The aldosterone was dissolved with 1% ethanol/physiological saline and administered subcutaneously. The substance to be tested was administered 30 minutes before administering aldosterone. In order to stabilize and sufficiently secure the amount of the urine, physiological saline was administered orally in an amount of 20 ml/kg at the time of administering aldosterone. The colleted urine, after measuring its volume, was subjected to a measurement of electrolyte (sodium: Na and potassium: K) concentration in the urine with a biochemistry autoanalyzer (manufactured by Beckman, Synchron CX3 system Delta).

Structures are written as SMILES. pIC50: −log10 of the molar value.

On aldosterone receptor MR, `CC1(C)OC(=S)Nc2ccc(NS(=O)(=O)c3cccs3)cc21` [Example 24, N-(4,4-Dimethyl-2-thioxo-1,4-dihydro-2H-3,1-benzoxazin-6-yl)thiophene-2-sulfonamide] gave a pIC50 of 7.89. In addition, in test [1], the “inhibition of the decrease of the urine Na/K ratio induced with aldosterone” value is “dose-dependently inhibited the decrease of the urine Na/K ratio”.

Consider `CC1(C)OC(=S)Nc2ccc(OS(=O)(=O)c3cccs3)cc21` [Example 12, 4,4-Dimethyl-2-thioxo-1,4-dihydro-2H-3,1-benzoxazin-6-yl thiophene-2-sulfonate], for which, on aldosterone receptor MR, the pIC50 was 7.08.

As to `Cc1ccc(S(=O)(=O)Oc2ccc3c(c2)C(C)(C)OC(=S)N3)cc1` [Example 2, 4,4-Dimethyl-2-thioxo-1,4-dihydro-2H-3,1-benzoxazin-6-yl 4-methylbenzenesulfonate], the pIC50 on aldosterone receptor MR is 6.49.

`CC1=CC(C)(C)Nc2ccc(OS(=O)(=O)c3ccc(C)cc3)cc21` [Example 51, 2,2,4-Trimethyl-1,2-dihydroquinolin-6-yl 4-methylbenzenesulfonate] gave a pIC50 at aldosterone receptor MR of 6.52.

`CC1=CC(C)(C)Nc2ccc(NS(=O)(=O)c3ccccc3)cc21` [Example 63, N-(2,2,4-Trimethyl-1,2-dihydroquinolin-6-yl)benzenesulfonamide]: at aldosterone receptor MR, the pIC50 is 6.44.

Turning to `CC1=CC(C)(C)Nc2ccc(NS(=O)(=O)c3cccs3)cc21` [Example 62, N-(2,2,4-Trimethyl-1,2-dihydroquinolin-6-yl)thiophene-2-sulfonamide], at aldosterone receptor MR, the pIC50 was 6.89.

For `O=S(=O)(Nc1ccc2c(c1)C(c1ccccc1)OC(=S)N2)c1cccs1` (stereo not shown) [Example 44, N-(4-Phenyl-2-thioxo-1,4-dihydro-2H-3,1-benzoxazin-6-yl)thiophene-2-sulfonamide], the pIC50 at aldosterone receptor MR is 6.07.

Molecule `Cc1ccc(S(=O)(=O)Cc2ccc(NS(C)(=O)=O)cc2)cc1` [Example 112, N-(4-{[(4-Methylphenyl)sulfonyl]methyl}phenyl)methanesulfonamide] had a pIC50 at aldosterone receptor MR of 5.27.

At aldosterone receptor MR, `Cc1ccc(S(=O)(=O)Cc2ccc3c(c2)C(C)(C)OC(=S)N3)cc1` [Example 16, 4,4-Dimethyl-6-{[(4-methylphenyl)sulfonyl]methyl}-1,4-dihydro-2H-3,1-benzoxazin-2-thione] showed a pIC50 of 8.15.

At aldosterone receptor MR, `CC1=CC(C)(C)Nc2ccc(NS(=O)(=O)c3ccc4ccccc4c3)cc21` [Example 61, N-(2,2,4-Trimethyl-1,2-dihydroquinolin-6-yl)naphthalene-2-sulfonamide] showed a pIC50 of 6.28.

In turn, `Cc1ccc(S(=O)(=O)Cc2ccc3c(c2)CCC(C(F)(F)F)N3)cc1` (stereo not shown) [Example 104, 6-{[(4-Methylphenyl)sulfonyl]methyl}-2-(trifluoromethyl)-1,2,3,4-tetrahydroquinoline] showed a pIC50 at aldosterone receptor MR of 5.74.

As to `CC1=CC(C)(C)Nc2ccc(OS(=O)(=O)c3ccc4ccccc4c3)cc21` [Example 52, 2,2,4-Trimethyl-1,2-dihydroquinolin-6-yl naphthalene-2-sulfonate], the pIC50 at aldosterone receptor MR was 6.14.

At aldosterone receptor MR, `CC1(C)OC(=S)Nc2ccc(CS(=O)(=O)c3ccccc3)cc21` [Example 18, 4,4-Dimethyl-6-[(phenylsulfonyl)methyl]-1,4-dihydro-2H-3,1-benzoxazin-2-thione] showed a pIC50 of 7.41.

In the case of `CC1=CC(C)(C)Nc2ccc(NS(=O)(=O)c3cc4ccccc4s3)cc21` [Example 75, N-(2,2,4-Trimethyl-1,2-dihydroquinolin-6-yl)-1-benzothiophene-2-sulfonamide], the pIC50 at aldosterone receptor MR is 6.41.

As for `CC1CC(C)(C)Nc2ccc(NS(=O)(=O)c3ccc4ccccc4c3)cc21` (stereo not shown) [Example 99, N-(2,2,4-Trimethyl-1,2,3,4-tetrahydroquinolin-6-yl)naphthalene-2-sulfonamide], the pIC50 on aldosterone receptor MR was 5.41.

For `CC1CC(C)(C)Nc2ccc(NS(=O)(=O)c3cccs3)cc21` (stereo not shown) [Example 98, N-(2,2,4-Trimethyl-1,2,3,4-tetrahydroquinolin-6-yl)thiophene-2-sulfonamide], the pIC50 on aldosterone receptor MR was 7.03.

`CC1=CC(C)(C)Nc2ccc(NS(=O)(=O)c3cccnc3)cc21` [Example 73, N-(2,2,4-Trimethyl-1,2-dihydroquinolin-6-yl)pyridine-3-sulfonamide] showed a pIC50 at aldosterone receptor MR of 6.68.

The molecule `CC1(C)OC(=S)Nc2ncc(CS(=O)(=O)c3cccnc3)cc21` [Example 38, 4,4-Dimethyl-6-[(pyridine-3-ylsulfonyl)methyl]-1,4-dihydro-2H-pyrido[2,3-d][1,3]oxazin-2-thione] gave a pIC50 at aldosterone receptor MR of 5.18.

Turning to `Cc1ccc(S(=O)(=O)Oc2ccc(NS(C)(=O)=O)cc2F)cc1` [Example 110, 2-Fluoro-4-[(methylsulfonyl)amino]phenyl 4-methylbenzenesulfonate], the pIC50 at aldosterone receptor MR is 5.03.

`Cc1ccc(S(=O)(=O)Nc2ccc3c(c2)C(C)(C)OC(=S)N3)cc1` [Example 22, N-(4,4-Dimethyl-2-thioxo-1,4-dihydro-2H-3,1-benzoxazin-6-yl)-4-methylbenzenesulfonamide]: the pIC50 at aldosterone receptor MR is 6.68.

`CC(=O)N(c1ccc2c(c1)C(C)CC(C)(C)N2)S(=O)(=O)c1ccc(C)cc1` (stereo not shown) [Example 101, N-[(4-Methylphenyl)sulfonyl]-N-(2,2,4-trimethyl-1,2,3,4-tetrahydroquinolin-6-yl)acetamide] showed a pIC50 at aldosterone receptor MR of 6.72.

At aldosterone receptor MR, `C=CC1(C)OC(=S)Nc2ccc(NS(=O)(=O)c3cccs3)cc21` (stereo not shown) [Example 50, N-(4-Methyl-2-thioxo-4-vinyl-1,4-dihydro-2H-3,1-benzoxazin-6-yl)thiophene-2-sulfonamide] had a pIC50 of 7.96.

Molecule `CC1(C)OC(=S)Nc2ccc(NS(=O)(=O)c3ccc(C(F)(F)F)cc3)cc21` [Example 30, N-(4,4-Dimethyl-2-thioxo-1,4-dihydro-2H-3,1-benzoxazin-6-yl)-4-(trifluoromethyl)benzenesulfonamide] showed a negative-log IC50 (pIC50) at aldosterone receptor MR of 6.80.

Regarding `CC1=CC(C)(C)Nc2ccc(N(C)S(=O)(=O)c3cccs3)cc21` [Example 85, N-Methyl-N-(2,2,4-trimethyl-1,2-dihydroquinolin-6-yl)thiophene-2-sulfonamide], on aldosterone receptor MR, the pIC50 was 6.82.

`CC1=CC(C)(C)Nc2ccc(NS(=O)(=O)c3ccc(C)cc3)cc21` [Example 60, 4-Methyl-N-(2,2,4-trimethyl-1,2-dihydroquinolin-6-yl)benzenesulfonamide] gave a pIC50 at aldosterone receptor MR of 6.52.

Turning to `Cc1ccc(S(=O)(=O)Cc2cnc3c(c2)C(C)(C)OC(=S)N3)cc1` [Example 36, 4,4-Dimethyl-6-{[(4-methylphenyl)sulfonyl]methyl}-1,4-dihydro-2H-pyrido[2,3-d][1,3]oxazin-2-thione], the pIC50 on aldosterone receptor MR was 5.89.

Consider `C=CC1OC(=S)Nc2ccc(NS(=O)(=O)c3cccs3)cc21` (stereo not shown) [Example 46, N-(2-Thioxo-4-vinyl-1,4-dihydro-2H-3,1-benzoxazin-6-yl)thiophene-2-sulfonamide], for which the pIC50 on aldosterone receptor MR was 5.54.

The term pIC50 denotes the negative decadic logarithm of the IC50, by convention in mol/L. A higher pIC50 goes with a small IC50.
